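Step 1: Grow cells in 96-well plates. Step 2: Expose to compound for 48 hours at 5 concentrations. Step 3: Interpolate endpoints linearly; if unreached, use highest concentration. At the TGI there is no net growth.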
How the values were obtained:
Experiment in all cases: NCI tumour cell line growth inhibition, 48 h
[1] = tested on: HOP-62 NSCLC
[2] = tested on: DMS 273 small cell lung
[3] = tested on: OVCAR-3 ovarian
[4] = tested on: MALME-3M melanoma
[5] = tested on: OVCAR-8 ovarian
[6] = tested on: CCRF-CEM leukemia
[7] = tested on: HCC-2998 colon
[8] = tested on: CAKI-1 renal
[9] = tested on: IGROV1 ovarian
[10] = tested on: LXFL 529 NSCLC
[11] = tested on: RXF 393 renal
[12] = tested on: A498 renal
[13] = tested on: HOP-18 NSCLC
[14] = tested on: UACC-257 melanoma
[15] = tested on: EKVX NSCLC
[16] = tested on: SK-MEL-28 melanoma
[17] = tested on: UO-31 renal
[18] = tested on: SN12C renal
[19] = tested on: RXF-631 renal
[20] = tested on: NCI-H23 lung
[21] = tested on: K-562 leukemia
[22] = tested on: HCT-116 colon
[23] = tested on: A549 NSCLC
[24] = tested on: MOLT-4 leukemia
[25] = tested on: COLO 205 colon
[26] = tested on: SK-OV-3 ovarian
[27] = tested on: SNB-19 CNS
[28] = tested on: 786-0 renal
[29] = tested on: KM20L2 colon
[30] = tested on: NCI-H522 lung
[31] = tested on: M19-MEL melanoma
[32] = tested on: HCT-15 colon
[33] = tested on: HOP-92 NSCLC
[34] = tested on: SF-539 CNS
[35] = tested on: LOX IMVI melanoma
[36] = tested on: HL-60(TB) leukemia
[37] = tested on: KM12 colon
[38] = tested on: SK-MEL-2 melanoma
[39] = tested on: SR leukemia
[40] = tested on: SNB-75 CNS
[41] = tested on: OVCAR-4 ovarian
[42] = tested on: OVCAR-5 ovarian
[43] = tested on: NCI-H460 lung
[44] = tested on: SW-620 colon
[45] = tested on: NCI-H226 lung
[46] = tested on: M14 melanoma
[47] = tested on: ACHN renal
[48] = tested on: SK-MEL-5 melanoma
[49] = tested on: HT29 colon
[50] = tested on: DLD-1 colon
[51] = tested on: U251 CNS
[52] = tested on: DMS 114 small cell lung
[53] = tested on: UACC-62 melanoma
[54] = tested on: TK-10 renal
[55] = tested on: SNB-78 CNS
[56] = tested on: SF-295 CNS
[57] = tested on: SF-268 CNS
[58] = tested on: RPMI-8226 leukemia

Compound: O/N=C1/C(=C/c2ccc(OCc3ccccc3)cc2)CCCC1C(NO)c1ccc(OCc2ccccc2)cc1 (stereo unspecified)
- TGI [1]: > 100 µM
- TGI [2]: > 100 µM
- TGI [3]: 88.8 µM
- TGI [4]: > 100 µM
- TGI [5]: > 100 µM
- TGI [6]: > 100 µM
- TGI [7]: > 100 µM
- TGI [8]: 73.8 µM
- TGI [9]: > 100 µM
- TGI [10]: > 100 µM
- TGI [11]: 24.9 µM
- TGI [12]: > 100 µM
- TGI [13]: > 100 µM
- TGI [14]: > 100 µM
- TGI [15]: > 100 µM
- TGI [16]: > 100 µM
- TGI [17]: > 100 µM
- TGI [18]: 9.54 µM
- TGI [19]: > 100 µM
- TGI [20]: > 100 µM
- TGI [21]: > 100 µM
- TGI [22]: > 100 µM
- TGI [23]: > 100 µM
- TGI [24]: > 100 µM
- TGI [25]: > 100 µM
- TGI [26]: > 100 µM
- TGI [27]: > 100 µM
- TGI [28]: > 100 µM
- TGI [29]: > 100 µM
- TGI [30]: 48 µM
- TGI [31]: > 100 µM
- TGI [32]: > 100 µM
- TGI [33]: 63.5 µM
- TGI [34]: > 100 µM
- TGI [35]: 24.5 µM
- TGI [36]: > 100 µM
- TGI [37]: > 100 µM
- TGI [38]: > 100 µM
- TGI [39]: > 100 µM
- TGI [40]: 97.9 µM
- TGI [41]: 57.5 µM
- TGI [42]: > 100 µM
- TGI [43]: > 100 µM
- TGI [44]: > 100 µM
- TGI [45]: > 100 µM
- TGI [46]: > 100 µM
- TGI [47]: > 100 µM
- TGI [48]: > 100 µM
- TGI [49]: > 100 µM
- TGI [50]: > 100 µM
- TGI [51]: 33.4 µM

Compound: CCC12C=C(C(=O)OC)N3c4ccccc4C4CCN(CCC1)C2C43 (stereo unspecified)
- TGI [52]: > 100 µM
- TGI [1]: 99.8 µM
- TGI [2]: > 100 µM
- TGI [3]: > 100 µM
- TGI [4]: 70.4 µM
- TGI [53]: > 100 µM
- TGI [5]: > 100 µM
- TGI [6]: > 100 µM
- TGI [7]: > 100 µM
- TGI [8]: > 100 µM
- TGI [9]: > 100 µM
- TGI [10]: > 100 µM
- TGI [11]: > 100 µM
- TGI [54]: > 100 µM
- TGI [55]: > 100 µM
- TGI [12]: > 100 µM
- TGI [13]: > 100 µM
- TGI [14]: > 100 µM
- TGI [15]: > 100 µM
- TGI [16]: > 100 µM
- TGI [17]: > 100 µM
- TGI [18]: > 100 µM
- TGI [20]: > 100 µM
- TGI [21]: > 100 µM
- TGI [22]: > 100 µM
- TGI [23]: > 100 µM
- TGI [56]: > 100 µM
- TGI [24]: > 100 µM
- TGI [25]: > 100 µM
- TGI [26]: > 100 µM
- TGI [27]: > 100 µM
- TGI [28]: 60.9 µM
- TGI [29]: 56.7 µM
- TGI [30]: > 100 µM
- TGI [31]: > 100 µM
- TGI [32]: > 100 µM
- TGI [33]: > 100 µM
- TGI [34]: > 100 µM
- TGI [35]: > 100 µM
- TGI [57]: > 100 µM
- TGI [58]: > 100 µM
- TGI [36]: > 100 µM
- TGI [37]: > 100 µM
- TGI [38]: > 100 µM
- TGI [40]: > 100 µM
- TGI [41]: > 100 µM
- TGI [42]: > 100 µM
- TGI [44]: > 100 µM
- TGI [45]: 82.5 µM
- TGI [46]: > 100 µM
- TGI [47]: > 100 µM
- TGI [48]: > 100 µM
- TGI [49]: > 100 µM
- TGI [50]: > 100 µM
- TGI [51]: > 100 µM
